According to patent publication US11198850B2, “Method for manufacturing telencephalon or progenitor tissue thereof” (RIKEN, priority 2013, dated 2021):

Test system: hESC-derived hippocampal neurons
Assay: Whole cell patch clamp of hippocampal neurons from dispersion culture of hESC-derived hippocampal tissue (sEPSC)
Format: cell-based, human
Conditions: DNQX 10 μM; voltage held at −60 mV; day 53 after dispersion
Experimental: By a method similar to that in Example 7-1, continuous hippocampal tissues were subjected to dispersion culture. In this experiment, flat plane culture was performed by seeding on a glass or plastic dish, slide and the like. For culture, a glass or plastic surface was coated with poly-D-Lysine (100 μg/ml) at 37° C. for 3 hr, and Laminin 20 μg/ml/Fibronectin 8 μg/ml overnight at 37° C.
The culture medium used for day 1-2 of dispersion was Neurobasal medium (Gibco/Invitrogen) added with 2% B27 supplement without vitamin A (Gibco/Invitrogen), 2 mM L-glutamine, 1% FBS, 20 ng/ml BDNF, 20 ng/ml NT-3, and 10 μM Y-27632. From day 3 of culture, Neurobasal medium (Gibco/Invitrogen) added with 2% B27 supplement without vitamin A (Gibco/Invitrogen), 2 mM L-glutamine, 10% FBS, BDNF 20 ng/ml, and NT-3 20 ng/ml was used and a half amount of the medium was exchanged every three days. […] Also, the cells obtained by dispersion culture by the same method were electrophysiologically analyzed by the Patch clamp technique. […] For sEPSC, time-course electric current was measured when the voltage was maintained at −60 mV, and the medicament used was DNQX (sigma, D0540) at a final concentration of 10 μM. As the action potential, the membrane potential upon […] stimulation was measured.

O=[N+]([O-])c1cc2nc(O)c(O)nc2cc1[N+](=O)[O-] [DNQX]
spontaneous excitatory postsynaptic current (sEPSC): inhibited
